Tested on: MV-4-11 cells
Assay: Gene expression microarray analysis (Affymetrix PrimeView) and GSEA
Type: cell-based, human
Set-up: RFU PODN (11730768_x_at) / Fold change /veh PODN (11730768_x_at) / RFU LINC00158 (11744669_a_at) / Fold change /veh LINC00158 (11744669_a_at) / RFU DUSP10 (11751237_a_at) / Fold change /veh DUSP10 (11751237_a_at) / RFU ID3 (11757404_x_at) / Fold change /veh ID3 (11757404_x_at) / RFU PLEKHG5 (11737974_s_at) / Fold change /veh PLEKHG5 (11737974_s_at) / RFU LRRC4B (11730491_at) / Fold change /veh LRRC4B (11730491_at) / RFU GIMAP4 (11747438_a_at) / Fold change /veh GIMAP4 (11747438_a_at) / RFU KRT8 (11758183_x_at) / Fold change /veh KRT8 (11758183_x_at) / RFU CNN1 (11734310_a_at) / Fold change /veh CNN1 (11734310_a_at) / RFU VPS37D (11726825_at) / Fold change /veh VPS37D (11726825_at) / RFU C10orf10 (11716522_x_at) / Fold change /veh C10orf10 (11716522_x_at) / RFU KIR2DL2 /// KIR2DL4 /// KIR2DL5A /// KIR2DL5B /// KIR2DS1 /// KIR2DS2 /// KIR2DS3 /// KIR2DS4 /// KIR3DL3 /// KIR3DL3 /// KIR3DS1 (11738374_at) / Fold change /veh KIR2DL2 /// KIR2DL4 /// KIR2DL5A /// KIR2DL5B /// KIR2DS1 /// KIR2DS2 /// KIR2DS3 /// KIR2DS4 /// KIR3DL3 /// KIR3DL3 /// KIR3DS1 (11738374_at) / RFU C1QL1 (11718748_at) / Fold change /veh C1QL1 (11718748_at) / RFU TMPRSS4 (11747572_a_at) / Fold change /veh TMPRSS4 (11747572_a_at) / RFU HAMP (11756126_x_at) / Fold change /veh HAMP (11756126_x_at) / RFU RNFT2 (11725882_a_at) / Fold change /veh RNFT2 (11725882_a_at) / RFU NR4A2 (11747474_a_at) / Fold change /veh NR4A2 (11747474_a_at) / RFU ABCC12 (11746883_a_at) / Fold change /veh ABCC12 (11746883_a_at) / RFU TMEM136 (11760407_x_at) / Fold change /veh TMEM136 (11760407_x_at) / RFU CLDN22 /// WWC2 (11732394_at) / Fold change /veh CLDN22 /// WWC2 (11732394_at) / RFU HLA-DPB1 (11760878_x_at) / Fold change /veh HLA-DPB1 (11760878_x_at) / RFU SPINT1 (11716480_a_at) / Fold change /veh SPINT1 (11716480_a_at) / RFU GAP43 (11754022_s_at) / Fold change /veh GAP43 (11754022_s_at) / RFU A4GNT (11735810_at) / Fold change /veh A4GNT (11735810_at) / RFU PRB3 (11715151_x_at) / Fold change /veh PRB3 (11715151_x_at) / RFU TUBB4B (11761932_at) / Fold change /veh TUBB4B (11761932_at) / RFU CAPN14 (11732068_a_at) / Fold change /veh CAPN14 (11732068_a_at) / RFU TMCC2 (11721928_a_at) / Fold change /veh TMCC2 (11721928_a_at) / RFU IRGQ (11745062_a_at) / Fold change /veh IRGQ (11745062_a_at) / RFU FAM174B (11720279_a_at) / Fold change /veh FAM174B (11720279_a_at) / RFU TMPRSS4 (11748680_a_at) / Fold change /veh TMPRSS4 (11748680_a_at) / RFU FAM212B (11763350_a_at) / Fold change /veh FAM212B (11763350_a_at) / RFU PLEKHG5 (11743358_a_at) / Fold change /veh PLEKHG5 (11743358_a_at) / RFU ZSCAN30 (11745921_a_at) / Fold change /veh ZSCAN30 (11745921_a_at) / RFU CMKLR1 (11741424_a_at) / Fold change /veh CMKLR1 (11741424_a_at) / RFU LOC101060620 /// MAPK8IP1 (11723275_at) / Fold change /veh LOC101060620 /// MAPK8IP1 (11723275_at) / RFU SPTSSB (11747773_x_at) / Fold change /veh SPTSSB (11747773_x_at) / RFU PRSS12 (11739890_at) / Fold change /veh PRSS12 (11739890_at) / RFU BIN1 (11741810_x_at) / Fold change /veh BIN1 (11741810_x_at) / RFU WNT11 (11732464_a_at) / Fold change /veh WNT11 (11732464_a_at) / RFU C10orf10 (11716521_a_at) / Fold change /veh C10orf10 (11716521_a_at) / RFU C5orf56 (11738089_at) / Fold change /veh C5orf56 (11738089_at) / RFU CYB561 (11721691_x_at) / Fold change /veh CYB561 (11721691_x_at) / RFU ANKRD19P (11752326_a_at) / Fold change /veh ANKRD19P (11752326_a_at) / RFU OR2T12 /// OR2T33 /// OR2T8 (11738714_s_at) / Fold change /veh OR2T12 /// OR2T33 /// OR2T8 (11738714_s_at) / RFU VCAN (11748164_a_at) / Fold change /veh VCAN (11748164_a_at) / RFU JSRP1 (11732532_at) / Fold change /veh JSRP1 (11732532_at) / RFU KRTAP10-11 (11738290_x_at) / Fold change /veh KRTAP10-11 (11738290_x_at) / RFU MYO3A (11730013_a_at) / Fold change /veh MYO3A (11730013_a_at) / RFU EBF3 (11725865_a_at) / Fold change /veh EBF3 (11725865_a_at) / RFU CAMK2N1 (11719241_x_at) / Fold change /veh CAMK2N1 (11719241_x_at) / RFU C5orf56 (11738088_a_at) / Fold change /veh C5orf56 (11738088_a_at) / RFU OLFML3 (11715873_a_at) / Fold change /veh OLFML3 (11715873_a_at) / RFU LOC100653217 /// NTM (11731650_a_at) / Fold change /veh LOC100653217 /// NTM (11731650_a_at) / RFU MAPK11 (11762145_a_at) / Fold change /veh MAPK11 (11762145_a_at) / RFU FIZ1 (11724087_x_at) / Fold change /veh FIZ1 (11724087_x_at) / RFU OASL (11726364_x_at) / Fold change /veh OASL (11726364_x_at) / RFU SOX15 (11748057_x_at) / Fold change /veh SOX15 (11748057_x_at) / RFU CD79A (11719716_a_at) / Fold change /veh CD79A (11719716_a_at) / RFU HIST1H1D (11736915_at) / Fold change /veh HIST1H1D (11736915_at) / RFU CASKIN2 (11723855_a_at) / Fold change /veh CASKIN2 (11723855_a_at) / RFU LOC730098 (11760151_x_at) / Fold change /veh LOC730098 (11760151_x_at) / RFU OR4N2 (11742367_at) / Fold change /veh OR4N2 (11742367_at) / RFU PRRT2 (11749266_a_at) / Fold change /veh PRRT2 (11749266_a_at) / RFU SNX32 (11753110_a_at) / Fold change /veh SNX32 (11753110_a_at) / RFU CDHR5 (11726645_a_at) / Fold change /veh CDHR5 (11726645_a_at) / RFU RCAN1 (11760418_a_at) / Fold change /veh RCAN1 (11760418_a_at) / RFU FAM167A (11723789_a_at) / Fold change /veh FAM167A (11723789_a_at) / RFU FAM26E (11764081_at) / Fold change /veh FAM26E (11764081_at) / RFU ISYNA1 (11749810_s_at) / Fold change /veh ISYNA1 (11749810_s_at) / RFU ACY1 (11761880_at) / Fold change /veh ACY1 (11761880_at) / RFU 11764098_at / Fold change /veh 11764098_at / RFU SAMD14 (11745864_x_at) / Fold change /veh SAMD14 (11745864_x_at) / RFU NPB (11741838_a_at) / Fold change /veh NPB (11741838_a_at) / RFU TMPRSS6 (11731388_a_at) / Fold change /veh TMPRSS6 (11731388_a_at) / RFU KRTAP10-2 (11738614_at) / Fold change /veh KRTAP10-2 (11738614_at) / RFU ARHGAP8 /// PRR5-ARHGAP8 (11727945_x_at) / Fold change /veh ARHGAP8 /// PRR5-ARHGAP8 (11727945_x_at) / RFU KRTAP5-7 /// NADSYN1 (11734609_at) / Fold change /veh KRTAP5-7 /// NADSYN1 (11734609_at) / RFU RASL12 (11751679_a_at) / Fold change /veh RASL12 (11751679_a_at) / RFU CDKN2B (11736163_a_at) / Fold change /veh CDKN2B (11736163_a_at) / RFU PRF1 (11729649_at) / Fold change /veh PRF1 (11729649_at) / RFU, ZNF638 /// ZNF638-IT1 / Fold change vs veh, ZNF638 /// ZNF638-IT1 / RFU, PANK3 / Fold change vs veh, PANK3 / RFU, SH3YL1 / Fold change vs veh, SH3YL1 / RFU, ZEB2 / Fold change vs veh, ZEB2 / RFU, NRIP1 / Fold change vs veh, NRIP1 / RFU, PTTG1IP / Fold change vs veh, PTTG1IP / RFU, CAPN2 / Fold change vs veh, CAPN2 / RFU, MED14 / Fold change vs veh, MED14 / RFU, SNORA58 / Fold change vs veh, SNORA58 / RFU, C1orf63 / Fold change vs veh, C1orf63 / RFU, LRRFIP1 / Fold change vs veh, LRRFIP1 / RFU, NDUFAF7 / Fold change vs veh, NDUFAF7 / RFU, SLC12A2 / Fold change vs veh, SLC12A2 / RFU, IBTK / Fold change vs veh, IBTK / RFU, ESF1 / Fold change vs veh, ESF1 / Fold change vs veh, TMEM50B / RFU, TAOK1 / Fold change vs veh, TAOK1 / RFU, ACBD3 / Fold change vs veh, ACBD3 / RFU, TMA16 / Fold change vs veh, TMA16 / RFU, RWDD3 / Fold change vs veh, RWDD3 / RFU, BCAT1 / Fold change vs veh, BCAT1 / RFU, EDEM3 / Fold change vs veh, EDEM3 / RFU, TMEM33 / Fold change vs veh, TMEM33 / RFU, WDR75 / Fold change vs veh, WDR75 / RFU, AHCTF1 / Fold change vs veh, AHCTF1 / RFU, TFRC / Fold change vs veh, TFRC / RFU, ZDHHC17 / Fold change vs veh, ZDHHC17 / RFU, NOM1 / Fold change vs veh, NOM1 / RFU, ARL8B / Fold change vs veh, ARL8B / RFU, ZBTB11 / Fold change vs veh, ZBTB11 / RFU, TAMM41 / Fold change vs veh, TAMM41 / RFU, KIAA1704 /// LOC100996395 / Fold change vs veh, KIAA1704 /// LOC100996395 / RFU, ING1 / Fold change vs veh, ING1 / RFU, TRMT61B / Fold change vs veh, TRMT61B / RFU, FUBP3 / Fold change vs veh, FUBP3 / RFU, TP53 / Fold change vs veh, TP53 / RFU, TNKS2 / Fold change vs veh, TNKS2 / RFU, ZFP14 / Fold change vs veh, ZFP14 / RFU, ACTR2 / Fold change vs veh, ACTR2 / RFU, PPP3R1 / Fold change vs veh, PPP3R1 / RFU, PIK3R1 / Fold change vs veh, PIK3R1 / RFU, HNRNPA1 / Fold change vs veh, HNRNPA1 / RFU, RNF170 / Fold change vs veh, RNF170 / RFU, ZNF28 / Fold change vs veh, ZNF28 / RFU, RNGTT / Fold change vs veh, RNGTT / RFU, OGT / Fold change vs veh, OGT / RFU, BRD1 / Fold change vs veh, BRD1 / RFU, MARS / Fold change vs veh, MARS / RFU, ZNF655 / Fold change vs veh, ZNF655 / RFU, FAHD1 / Fold change vs veh, FAHD1 / RFU, BDP1 / Fold change vs veh, BDP1 / RFU, LRRCC1 / Fold change vs veh, LRRCC1 / RFU, ARID1A / Fold change vs veh, ARID1A / RFU, ZNF146 / Fold change vs veh, ZNF146 / RFU, ZNF330 / Fold change vs veh, ZNF330 / RFU, GPN3 / Fold change vs veh, GPN3 / RFU, C9orf123 / Fold change vs veh, C9orf123 / RFU, N4BP2L2 / Fold change vs veh, N4BP2L2 / RFU, ARFIP1 / Fold change vs veh, ARFIP1 / RFU, FAM179B / Fold change vs veh, FAM179B / RFU, BCL10 / Fold change vs veh, BCL10 / RFU, UHRF1BP1L / Fold change vs veh, UHRF1BP1L / RFU, BET1 / Fold change vs veh, BET1 / RFU, CNOT2 / Fold change vs veh, CNOT2 / RFU, ZNF268 / Fold change vs veh, ZNF268 / Fold change vs veh, ZNF507 / RFU, DGCR2 / Fold change vs veh, DGCR2 / RFU, WDSUB1 / Fold change vs veh, WDSUB1 / Fold change vs veh, HSP90B1 /// MIR3652 / RFU, ADSS / Fold change vs veh, ADSS / RFU, GK / Fold change vs veh, GK / RFU, ZNF148 / Fold change vs veh, ZNF148 / RFU, TAF9 / Fold change vs veh, TAF9 / RFU, SLC1A5 / Fold change vs veh, SLC1A5 / RFU, SLMO2 / Fold change vs veh, SLMO2 / RFU, ABCC4 / Fold change vs veh, ABCC4 / RFU, LOC101060439 /// RAP1B / Fold change vs veh, LOC101060439 /// RAP1B / RFU, RFX7 / Fold change vs veh, RFX7 / RFU, GTPBP10 / Fold change vs veh, GTPBP10 / RFU, CNEP1R1 / Fold change vs veh, CNEP1R1 / RFU, BIVM-ERCC5 /// ERCC5 / Fold change vs veh, BIVM-ERCC5 /// ERCC5 / RFU, ILF3 / Fold change vs veh, ILF3 / RFU 11762660_at / Fold change /veh 11762660_at / RFU VCAN (11757783_s_at) / Fold change /veh VCAN (11757783_s_at) / RFU DDX43 (11728927_at) / Fold change /veh DDX43 (11728927_at) / RFU KRT8 (11758188_x_at) / Fold change /veh KRT8 (11758188_x_at) / RFU NKD1 (11759106_at) / Fold change /veh NKD1 (11759106_at) / RFU SRD5A1 (11742802_a_at) / Fold change /veh SRD5A1 (11742802_a_at) / RFU TPSAB1 /// TPSB2 (11721975_s_at) / Fold change /veh TPSAB1 /// TPSB2 (11721975_s_at) / RFU GSTM3 (11746129_a_at) / Fold change /veh GSTM3 (11746129_a_at) / RFU IL23R (11737362_x_at) / Fold change /veh IL23R (11737362_x_at) / RFU TMEM51 (11727254_a_at) / Fold change /veh TMEM51 (11727254_a_at) / RFU PIWIL2 (11732686_x_at) / Fold change /veh PIWIL2 (11732686_x_at) / RFU ORM1 (11744905_x_at) / Fold change /veh ORM1 (11744905_x_at) / RFU CCDC152 (11743942_at) / Fold change /veh CCDC152 (11743942_at) / RFU ECM1 (11717891_a_at) / Fold change /veh ECM1 (11717891_a_at) / RFU IL23R (11748794_a_at) / Fold change /veh IL23R (11748794_a_at) / RFU TNFAIP8L3 (11732012_x_at) / Fold change /veh TNFAIP8L3 (11732012_x_at) / RFU MBOAT4 (11741988_at) / Fold change /veh MBOAT4 (11741988_at) / RFU 11764193_at / Fold change /veh 11764193_at / RFU TMEM53 (11763286_at) / Fold change /veh TMEM53 (11763286_at) / RFU MAGEB2 (11727129_at) / Fold change /veh MAGEB2 (11727129_at) / RFU TMEM200A (11744735_a_at) / Fold change /veh TMEM200A (11744735_a_at) / RFU CCDC152 (11751479_a_at) / Fold change /veh CCDC152 (11751479_a_at) / RFU FAM211A (11726209_a_at) / Fold change /veh FAM211A (11726209_a_at) / RFU RGS16 (11746705_a_at) / Fold change /veh RGS16 (11746705_a_at) / RFU VCAN (11755009_s_at) / Fold change /veh VCAN (11755009_s_at) / RFU RHOB (11743442_s_at) / Fold change /veh RHOB (11743442_s_at) / RFU RGS16 (11720943_a_at) / Fold change /veh RGS16 (11720943_a_at) / RFU RGS16 (11720944_at) / Fold change /veh RGS16 (11720944_at) / RFU, VPS4B / Fold change vs veh, VPS4B / RFU, CREB1 / Fold change vs veh, CREB1 / RFU, DNAJC13 / Fold change vs veh, DNAJC13 / RFU, GNAQ / Fold change vs veh, GNAQ / RFU, CDK5R1 / Fold change vs veh, CDK5R1 / RFU, ZRANB3 / Fold change vs veh, ZRANB3 / RFU, CUL4A / Fold change vs veh, CUL4A / RFU, CCNY / Fold change vs veh, CCNY / RFU, UFL1 / Fold change vs veh, UFL1 / RFU, COG3 / Fold change vs veh, COG3 / RFU, DIAPH2 / Fold change vs veh, DIAPH2 / RFU, SKA2 / Fold change vs veh, SKA2 / RFU, AFF3 / Fold change vs veh, AFF3 / RFU, LMF1 / Fold change vs veh, LMF1 / RFU, IPO11 / Fold change vs veh, IPO11 / RFU, DFFB / Fold change vs veh, DFFB / RFU, FOXP1 / Fold change vs veh, FOXP1 / RFU, CARD8 / Fold change vs veh, CARD8 / RFU, STRN3 / Fold change vs veh, STRN3 / RFU, ADK / Fold change vs veh, ADK / RFU, RASSF2 / Fold change vs veh, RASSF2 / RFU, WIPF1 / Fold change vs veh, WIPF1 / RFU, LARP1B / Fold change vs veh, LARP1B / RFU, RASA1 / Fold change vs veh, RASA1 / RFU, RB1 / Fold change vs veh, RB1 / RFU, PPFIA1 / Fold change vs veh, PPFIA1 / RFU, MAT2A / Fold change vs veh, MAT2A / RFU, CCT5 / Fold change vs veh, CCT5 / RFU, WDR92 / Fold change vs veh, WDR92 / RFU, CUX1 / Fold change vs veh, CUX1 / RFU, TTC7A / Fold change vs veh, TTC7A / RFU, TMEM135 / Fold change vs veh, TMEM135 / RFU, DEPTOR / Fold change vs veh, DEPTOR / RFU, CPM / Fold change vs veh, CPM / RFU, DNAJB6 / Fold change vs veh, DNAJB6 / RFU, CACNA2D3 / Fold change vs veh, CACNA2D3 / RFU, DTX4 / Fold change vs veh, DTX4 / RFU, TFCP2 / Fold change vs veh, TFCP2 / RFU, GMCL1 /// GMCL1P1 / Fold change vs veh, GMCL1 /// GMCL1P1 / RFU, AEBP2 / Fold change vs veh, AEBP2 / RFU, SNHG1 /// SNORD22 /// SNORD25 /// SNORD26 /// SNORD27 /// SNORD28 /// SNORD29 /// SNORD31 / Fold change vs veh, SNHG1 /// SNORD22 /// SNORD25 /// SNORD26 /// SNORD27 /// SNORD28 /// SNORD29 /// SNORD31 / Fold change (Aza/veh), C12orf56 (ProbeSet 11735607_a_at) / Fold change (ACY-1035/veh), C12orf56 (ProbeSet 11735607_a_at) / Fold change (Aza/veh), FGFR1OP (ProbeSet 11751329_s_at) / Fold change (ACY-1035/veh), FGFR1OP (ProbeSet 11751329_s_at) / Fold change (Aza/veh), VPS36 (ProbeSet 11739960_a_at) / Fold change (ACY-1035/veh), VPS36 (ProbeSet 11739960_a_at) / RFU SYPL1 (11715823_x_at) / Fold change /veh SYPL1 (11715823_x_at) / RFU IGFBP7 (11715501_s_at) / Fold change /veh IGFBP7 (11715501_s_at) / RFU REEP3 (11722064_at) / Fold change /veh REEP3 (11722064_at) / RFU IGLL1 (11728026_x_at) / Fold change /veh IGLL1 (11728026_x_at): dose or concentration left out as unconfirmed
Conditions: MV-4-11 cells, 48 hours

Nc1ccc(-c2cccs2)cc1NC(=O)c1ccc2c(c1)cc(C1CC1)n2CCN1CCOCC1 [ACY-1035]
RFU REEP3 (11722064_at): 19.86 RFU

— article PMC5218480 (PLoS ONE, 2017)
